Measured values as given in US20120129843A1, “PYRIDYL-THIAZOLYL INHIBITORS OF PRO-MATRIX METALLOPROTEINASE ACTIVATION” (priority 2010, published 2012).

Legend:
[1] = molecular target: T1, MMP9 processing by HFL-1 cells (Homo sapiens, UniProt P14780); assay: Activation of proMMP9 by human fetal lung fibroblast (HFL-1) cultures (Western blot); format: cell-based; conditions: 3.3 μM, 30 nM elastase, final 72 hrs; mAb-L51/82
T1 construct: host or cells: HFL-1 human fetal lung fibroblasts, TNFα plus neutrophil elastase
T1 sequence (P14780 20-707): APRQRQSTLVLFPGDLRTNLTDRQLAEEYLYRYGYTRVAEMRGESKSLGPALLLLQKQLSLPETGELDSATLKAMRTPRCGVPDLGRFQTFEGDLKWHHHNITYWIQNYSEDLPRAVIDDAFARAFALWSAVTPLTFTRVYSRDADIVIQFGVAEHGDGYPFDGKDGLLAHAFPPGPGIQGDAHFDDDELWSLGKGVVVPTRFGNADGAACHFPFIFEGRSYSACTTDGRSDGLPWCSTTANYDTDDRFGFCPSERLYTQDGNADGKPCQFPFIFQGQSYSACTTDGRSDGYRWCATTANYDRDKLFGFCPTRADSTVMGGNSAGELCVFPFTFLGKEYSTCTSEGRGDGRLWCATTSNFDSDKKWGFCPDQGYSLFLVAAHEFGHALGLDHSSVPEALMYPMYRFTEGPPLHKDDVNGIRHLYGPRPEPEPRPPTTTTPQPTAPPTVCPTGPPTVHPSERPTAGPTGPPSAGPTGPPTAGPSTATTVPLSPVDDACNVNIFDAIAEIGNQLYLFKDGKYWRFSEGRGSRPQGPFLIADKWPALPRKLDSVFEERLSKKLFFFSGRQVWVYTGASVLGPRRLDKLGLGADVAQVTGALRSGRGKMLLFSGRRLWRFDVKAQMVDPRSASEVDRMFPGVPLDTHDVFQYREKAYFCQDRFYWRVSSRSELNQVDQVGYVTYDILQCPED
Description: Compound-α was assessed additionally for ability to block the maturation of proMMP9 to active MMP9 in cultures of human fetal lung fibroblasts (HFL-1, American Type Culture Collection #CCL-153). Unlike rat synoviocytes, HFL-1 cells were unable to process proMMP9 to the active form without addition of neutrophil elastase. […] Rather, the function of elastase in this assay may be to inactivate tissue inhibitors of matrix metalloproteinases (TIMPs) that repress endogenous pathways of MMP9 activation (Am J Respir Crit. Care Med; 1999; 159:1138-46).
HLF-1 were maintained in monolayer culture in DMEM with 10% FCS and were used between passage numbers 5-15. HLF-1 were embedded in collagen gels as described for rat SCW synoviocytes (vida supra). Half mL gels containing 0.4 million cells were dislodged into wells of 12 well Costar plates containing 1 mL/well of DMEM adjusted to contain 0.05% BSA and 100 ng/mL human TNFα (R&D Systems Cat #210-TA/CF). After overnight culture (37° C. and 5% CO2) wells were adjusted to contain an additional 0.5 mL of DMEM containing 0.05% BSA and with or without 13.2 μM Compound-α (final concentration was 3.3 μM Compound-α). Next, cultures were adjusted to contain 30 nM human elastase (Innovative Research). The plates were cultured an additional 72 hrs, at which time MMP9 secreted into the conditioned media was bound to gelatin-sepharose and evaluated by Western blot analysis as described for the rat synoviocyte cultures (vida supra). mAb-51/82 detected three forms of MMP9 in HFL-1 cultures.
These included a form of approximately 100 kD with mobility similar to recombinant rat proMMP9, an approximately 80 kD form with mobility similar to rat active MMP9, and an approximately 86 kD intermediate form. In the absence of Compound-α, most of the MMP9 was present as the 80 kD form. In the presence of Compound-α, the 80 kD form was a minor fraction of the total signal while nearly half of the signal were contributed each by the 100 kD and 86 kD forms. […]
A second experiment was performed to determine if the 80 kD form was mature active MMP9 and to determine the potency of Compound-α as an inhibitor of MMP9 maturation in this assay. HFL-1 cells embedded in collagen gels were cultured as described above in the presence of TNFα overnight and the cultures were then adjusted to contain 30 nM elastase and graded concentrations of Compound-α for an additional 72 hrs at which time MMP9 secreted into the conditioned media was bound to gelatin-sepharose and evaluated by Western blot analysis for active MMP9 using pAb-1246 raised against the N-terminal neoepitope of active MMP9 (Table 5). In the absence of Compound-α, pAb-1246 readily detected MMP9 with an electrophoretic mobility of approximately 80 kD. […]

[2] = molecular target: T2, MMP9 in ankles of SCW-induced rats (Rattus norvegicus, UniProt P50282); assay: Pro and active MMP9 in ankles of rats with SCW-induced arthritis by Western blot; format: in vivo; conditions: Day 26, four hours after AM dose, FIG. 3A lanes 4-9
T2 construct: from tissue; host or cells: tibia-tarsus joints (ankles) of female Lewis rats
T2 sequence (P50282 20-708): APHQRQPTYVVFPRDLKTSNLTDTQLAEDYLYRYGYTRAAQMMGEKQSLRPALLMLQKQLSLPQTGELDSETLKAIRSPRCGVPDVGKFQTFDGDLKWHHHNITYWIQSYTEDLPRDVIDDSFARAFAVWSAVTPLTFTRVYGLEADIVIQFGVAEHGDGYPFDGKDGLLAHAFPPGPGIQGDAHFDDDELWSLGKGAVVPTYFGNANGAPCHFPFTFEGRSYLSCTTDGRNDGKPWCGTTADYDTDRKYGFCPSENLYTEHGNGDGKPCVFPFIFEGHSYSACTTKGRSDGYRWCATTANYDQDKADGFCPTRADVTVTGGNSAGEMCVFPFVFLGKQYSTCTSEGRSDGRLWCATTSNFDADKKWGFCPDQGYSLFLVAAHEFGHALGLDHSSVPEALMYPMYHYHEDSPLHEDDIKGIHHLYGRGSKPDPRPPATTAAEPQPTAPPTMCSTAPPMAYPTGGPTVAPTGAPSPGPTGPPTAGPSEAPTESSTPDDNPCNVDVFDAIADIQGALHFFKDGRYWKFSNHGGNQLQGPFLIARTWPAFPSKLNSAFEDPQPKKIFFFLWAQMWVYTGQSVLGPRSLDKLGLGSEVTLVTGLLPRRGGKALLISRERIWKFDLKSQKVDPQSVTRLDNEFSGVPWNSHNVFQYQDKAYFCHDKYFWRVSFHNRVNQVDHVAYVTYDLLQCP
Description: Hind-limbs were skinned, severed just above the tibia-tarsus joint and below the metatarsals, and the tibia-tarsus joints (ankles) were weighed, snap frozen and pulverized on dry ice using a hammer and anvil. The pulverized tissue was suspended in 3 volumes (w:v) of ice-cold homogenization buffer containing 50 mM Tris pH 7.5, 150 mM NaCl, 5 mM EDTA, 1% Triton X100, 0.05% Brij 30, 10% dimethylsulfoxide and Complete EDTA-free Protease Inhibitor Cocktail (Roche Diagnostics). The suspended tissue was homogenized sequentially with a Kinematica AG Polytron and a Dounce homogenizer. Homogenates were centrifuged at 16,000×g for 10 min at 4° C. and the soluble fractions were saved. Dimethylsulfoxide was removed from a portion of each soluble fraction using PD MiniTrap™ G-25 desalting columns (GE Healthcare). Homogenates (0.25 mL), free of DMSO, were diluted with an equal volume of binding buffer (i.e., homogenization buffer without dimethylsufoxide) and adjusted to contain 50 μL of a 50% slurry of gelatin-conjugated sepharose. […]
To induce arthritis, Female Lewis (LEW/N) rats, 5-6 weeks of age (80-100 g) were injected (i.p.) with SCW PG-PS as described above. […] Each ankle was measured 3 times and averaged, and treatment groups were randomized based on ankle thickness (Table 6). […]

Percent of total signal, 80 kD [1]: 7%
Percent of total signal, 86 kD [1]: 47%
Percent of total signal, 100 kD [1]: 46%
Signal, Total [1]: 91346 INT*mm^2
abundance of proMMP9 in ankles [2]: did not reduce the abundance of proMMP9
abundance of proMMP9 in ankles ([2]; listed as Compound α): did not reduce the abundance of proMMP-9
Structure (SMILES): Cc1nc(C)c(-c2csc(Nc3cc(S(N)(=O)=O)ccc3OC(C)C)n2)s1 [Compound-α, 3-(2′,4′-Dimethyl-[4,5′]bithiazolyl-2-ylamino)-4-isopropoxy-benzenesulfonamide.HBr]
